Laboratory results as given in US20040023994A1 (priority 2002, published 2004).
Like-named read-outs stand apart in the source and are kept apart here. Marks after values point to notes of the source that are not given here.

Legend:
[1] = test system: HL-60(TB); conditions: cited from earlier work; for GI50 / TGI: Leukemia, NCI database; for CC50: read-out: LC50, Leukemia, NCI database
[2] = test system: UO-31; conditions: UO-31, Renal, NCI database, cited from earlier work; for CC50: read-out: LC50 (the source's name)
[3] = test system: SK-OV-3; conditions: SK-OV-3, Ovarian, NCI database, cited from earlier work; for CC50: read-out: LC50 (the source's name)
[4] = test system: 786-0; conditions: 786-0, Renal, NCI database, cited from earlier work; for CC50: read-out: LC50 (the source's name)
[5] = test system: CCRF-CEM; conditions: Leukemia, NCI database, cited from earlier work; for CC50: read-out: LC50 (the source's name)
[6] = test system: RPMI-8226; conditions: RPMI-8226, Leukemia, NCI database, cited from earlier work; for CC50: read-out: LC50 (the source's name)
[7] = test system: Heterozygous nude CD-1 male mice; assay: Hematology analyses in treated mice; conditions: i.p.
Experimental: (§1) Heterozygous nude CD-1 male mice were treated (i.p.) with multiple doses consisting of either one dose daily for three consecutive days (cis-AVTP or trans-AVTG, 21.25 μmol/kg, 6-TG, 8.5 or 21.25 μmol/kg, or vehicle; one cycle), or one dose daily for three consecutive days, repeated again five days later (cis-AVTP, trans-AVTG or 6-TG, 8.5 or 21.25 μmol/kg, or vehicle; two cycles).
(§2) The mice were sacrificed 24 h after the last treatment. Urine was collected for 24 h before initiation of treatment and every 24 h thereafter until the mice were sacrificed. Blood was collected by cardiac puncture and blood cells counted. Sections of liver, kidney, intestines, stomach and sternum were stained with hematoxylin and eosin and subjected to pathological analysis. Bone marrow smears were prepared for assessment of bone marrow cellularity. Liver function was evaluated by measuring alanine aminotransferase-(ALT) and aspartate aminotransferase (AST) activities in plasma. Kidney function was evaluated by measuring blood urea nitrogen in plasma and γ-glutamyltransferase activity and glucose levels in urine.

[8] = test system: Heterozygous nude CD-1 male mice; assay: Liver function (AST, ALT in plasma) and liver histopathology in treated mice
Experimental: as §1, §2

[9] = test system: ACHN
[10] = test system: K-562; conditions: K-562, Leukemia, 48 h
[11] = test system: CAKI-1; conditions: CAKI-1, Renal, 48 h
[12] = test system: NCI-H460; conditions: NCI-H460, Non-Small Cell Lung, 48 h
[13] = test system: HL-60(TB)
[14] = test system: 786-0; conditions: 786-0, Renal, 48 h
[15] = test system: SK-OV-3; conditions: SK-OV-3, Ovarian, 48 h
[16] = test system: OVCAR-3; conditions: OVCAR-3, Ovarian, 48 h
[17] = test system: SK-MEL-28; conditions: SK-MEL-28, Melanoma, 48 h
[18] = test system: KM12; conditions: KM12, Colon, 48 h
[19] = test system: OVCAR-4; conditions: OVCAR-4, Ovarian, 48 h
[20] = test system: HCT-116; conditions: HCT-116, Colon, 48 h
[21] = test system: SNB-75; conditions: SNB-75, CNS, 48 h
[22] = test system: SK-MEL-2; conditions: SK-MEL-2, Melanoma, 48 h

Sc1ncnc2nc[nH]c12 [6-MP, 6-mercaptopurine]
GI50 [1]: 2.3 µM
TGI [1]: >100 µM
CC50 [1]: > 100 µM
GI50 [2]: 6.52 µM
TGI [2]: >100 µM
CC50 [2]: > 100 µM
GI50 [3]: 0.97 µM
TGI [3]: >100 µM
CC50 [3]: > 100 µM
GI50 [4]: 1.87 µM
TGI [4]: >100 µM
CC50 [4]: > 100 µM
CC50 [5]: > 100 µM
GI50 [5]: 1.22 µM
TGI [5]: >100 µM
GI50 [6]: 1.75 µM
TGI [6]: >100 µM
CC50 [6]: > 100 µM

Nc1nc2nc[nH]c2c(=S)[nH]1 [6-TG, 6-thioguanine]
GI50 [1]: 1.07 µM
TGI [1]: 17.8 µM
CC50 [1]: > 100 µM
PLT ([7]; 8.5 μmol/kg, one cycle): 1172 ± 161 × 10^3 cells/μl
RBC ([7]; 8.5 μmol/kg, one cycle): 8.3 ± 0.4 × 10^6 cells/μl
WBC ([7]; 8.5 μmol/kg, one cycle): 4.8 ± 1.2 × 10^3 cells/μl
PLT ([7]; 8.5 μmol/kg, two cycles): 906 ± 140 × 10^3 cells/μl
RBC ([7]; 8.5 μmol/kg, two cycles): 8.3 ± 0.2 × 10^6 cells/μl
WBC ([7]; 8.5 μmol/kg, two cycles): 5.3 ± 1.6 × 10^3 cells/μl
PLT ([7]; 21.25 μmol/kg, one cycle): 752 ± 416^b × 10^3 cells/μl
RBC ([7]; 21.25 μmol/kg, one cycle): 8.4 ± 0.6^a × 10^6 cells/μl
WBC ([7]; 21.25 μmol/kg, one cycle): 3.8 ± 1.1^b,* × 10^3 cells/μl
PLT ([7]; 21.25 μmol/kg, two cycles): 1351 ± 126 × 10^3 cells/μl
RBC ([7]; 21.25 μmol/kg, two cycles): 8.0 ± 0.3 × 10^6 cells/μl
WBC ([7]; 21.25 μmol/kg, two cycles): 3.6 ± 0.1 × 10^3 cells/μl
change in peripheral white blood cell counts ([7]; trans-AVTG: only 21.25 μmol/kg two cycles, 6-TG: 8.5 or 21.25 μmol/kg one cycle or 21.25 μmol/kg two cycles): reduced white blood cell counts
GI50 [2]: 1.48 µM
TGI [2]: 32.3 µM
CC50 [2]: > 100 µM
GI50 [3]: 0.54 µM
TGI [3]: 16.4 µM
CC50 [3]: > 100 µM
GI50 [4]: 0.82 µM
TGI [4]: >100 µM
CC50 [4]: > 100 µM
CC50 [5]: > 100 µM
GI50 [5]: 0.15 µM
TGI [5]: 25.4 µM
ALT ([8]; 8.5 μmol/kg, one cycle): 9.2 ± 3.2 SF U/ml
AST ([8]; 8.5 μmol/kg, one cycle): 43.5 ± 24.8 SF U/ml
ALT ([8]; 8.5 μmol/kg, two cycles): 10.5 ± 6.6^a SF U/ml
AST ([8]; 8.5 μmol/kg, two cycles): 37.9 ± 12.2^a SF U/ml
ALT ([8]; 21.25 μmol/kg, one cycle): 15.0 ± 2.5^b SF U/ml
AST ([8]; 21.25 μmol/kg, one cycle): 44.4 ± 5.4^c SF U/ml
ALT ([8]; 21.25 μmol/kg, two cycles): 12.6 ± 4.8^a SF U/ml
AST ([8]; 21.25 μmol/kg, two cycles): 68.2 ± 54.5^a SF U/ml
GI50 [6]: 0.39 µM
TGI [6]: 20.9 µM
CC50 [6]: > 100 µM

CC(=O)C=CSc1nc(N)nc2nc[nH]c12 [trans-AVTG, 6-(2-acetylvinylthio) guanine]
GI50 ([9]; Renal, 48 h): 3.63 µM
TGI ([9]; Renal, 48 h): 51.4 µM
CC50 ([9]; read-out: LC50, Renal, 48 h): > 100 µM
GI50 [10]: 0.5 µM
TGI [10]: >100 µM
CC50 ([10]; read-out: LC50): > 100 µM
GI50 [11]: 0.16 µM
TGI [11]: 0.51 µM
CC50 ([11]; read-out: LC50): 13.7 µM
GI50 [12]: 0.59 µM
TGI [12]: 3.57 µM
CC50 ([12]; read-out: LC50): 49.4 µM
GI50 ([13]; Leukemia, 48 h): 3.77 µM
TGI ([13]; Leukemia, 48 h): 16.6 µM
CC50 ([13]; read-out: LC50, Leukemia, 48 h): > 100 µM
GI50 [14]: 0.98 µM
TGI [14]: 21.9 µM
CC50 ([14]; read-out: LC50): > 100 µM
GI50 [15]: 0.24 µM
TGI [15]: 0.78 µM
CC50 ([15]; read-out: LC50): > 100 µM
GI50 [16]: 0.24 µM
TGI [16]: 0.63 µM
CC50 ([16]; read-out: LC50): 12.1 µM
GI50 [17]: 11.6 µM
TGI [17]: 24.8 µM
CC50 ([17]; read-out: LC50): 52.7 µM
GI50 [18]: 2.71 µM
TGI [18]: 13.0 µM
CC50 ([18]; read-out: LC50): 64.8 µM
GI50 [19]: 2.46 µM
TGI [19]: 17.0 µM
CC50 ([19]; read-out: LC50): 45.1 µM
GI50 [20]: 0.67 µM
TGI [20]: 3.01 µM
CC50 ([20]; read-out: LC50): 14.7 µM
GI50 [21]: 9.17 µM
TGI [21]: >100 µM
CC50 ([21]; read-out: LC50): > 100 µM
GI50 [22]: 1.02 µM
TGI [22]: 15.5 µM
CC50 ([22]; read-out: LC50): 98.7 µM
